Numbers after ± are expanded uncertainties.
Settings: 298.2 K; 101.33 kPa; Liquid; Pycnometric method

mass density: 796 ± 1 kg/m3
Structure (SMILES): CO [methanol]
